According to the NIST ThermoML archive (doi:10.1007/s10765-010-0737-5):

Test: xn = mol fraction of the nth substance listed
Details: Liquid; for viscosity: 101 kPa, Capillary tube (Ostwald / Ubbelohde) method; for mass density: 101.3 kPa

CCCCCl [1-chlorobutane] + CC(C)OC(C)C
Details | mass density [kg/m3] | viscosity [mPa·s]
283.15 K, x1 = 0.0466 | 740.095 | 0.3698
283.15 K, x1 = 0.0991 | 747.139 | 0.3755
283.15 K, x1 = 0.1918 | 759.833 | 0.3863
283.15 K, x1 = 0.3234 | 778.726 | 0.4028
283.15 K, x1 = 0.4199 | 793.339 | 0.4153
283.15 K, x1 = 0.516 | 808.586 | 0.4283
283.15 K, x1 = 0.623 | 826.434 | 0.4433
283.15 K, x1 = 0.7154 | 842.63 | 0.4568
283.15 K, x1 = 0.8157 | 861.003 | 0.4715
283.15 K, x1 = 0.9098 | 879.099 | 0.4857
283.15 K, x1 = 0.9559 | 888.28 | 0.4927
283.15 K, x1 = 1 | 897.339 | 0.4993
288.15 K, x1 = 0.0466 | 734.99 | 0.3535
288.15 K, x1 = 0.0991 | 741.966 | 0.359
288.15 K, x1 = 0.1918 | 754.629 | 0.3689
288.15 K, x1 = 0.3234 | 773.471 | 0.3838
288.15 K, x1 = 0.4199 | 788.055 | 0.3951
288.15 K, x1 = 0.516 | 803.274 | 0.4068
288.15 K, x1 = 0.623 | 821.073 | 0.4202
288.15 K, x1 = 0.7154 | 837.246 | 0.4321
288.15 K, x1 = 0.8157 | 855.588 | 0.4453
288.15 K, x1 = 0.9098 | 873.635 | 0.4579
288.15 K, x1 = 0.9559 | 882.81 | 0.4641
288.15 K, x1 = 1 | 891.855 | 0.4701
293.15 K, x1 = 0.0466 | 729.792 | 0.3385
293.15 K, x1 = 0.0991 | 736.75 | 0.3435
293.15 K, x1 = 0.1918 | 749.383 | 0.3528
293.15 K, x1 = 0.3234 | 768.192 | 0.3662
293.15 K, x1 = 0.4199 | 782.731 | 0.3763
293.15 K, x1 = 0.516 | 797.924 | 0.3868
293.15 K, x1 = 0.623 | 815.68 | 0.3988
293.15 K, x1 = 0.7154 | 831.821 | 0.4094
293.15 K, x1 = 0.8157 | 850.133 | 0.4212
293.15 K, x1 = 0.9098 | 868.142 | 0.4323
293.15 K, x1 = 0.9559 | 877.303 | 0.4379
293.15 K, x1 = 1 | 886.335 | 0.4433
298.15 K, x1 = 0.0466 | 724.56 | 0.3222
298.15 K, x1 = 0.0991 | 731.492 | 0.3273
298.15 K, x1 = 0.1918 | 744.091 | 0.336
298.15 K, x1 = 0.3234 | 762.854 | 0.3487
298.15 K, x1 = 0.4199 | 777.351 | 0.3583
298.15 K, x1 = 0.516 | 792.506 | 0.3682
298.15 K, x1 = 0.623 | 810.177 | 0.3793
298.15 K, x1 = 0.7154 | 826.321 | 0.3893
298.15 K, x1 = 0.8157 | 844.587 | 0.4003
298.15 K, x1 = 0.9098 | 862.556 | 0.411
298.15 K, x1 = 0.9559 | 871.691 | 0.4162
298.15 K, x1 = 1 | 880.705 | 0.4214
303.15 K, x1 = 0.0466 | 719.283 | 0.3048
303.15 K, x1 = 0.0991 | 726.204 | 0.3098
303.15 K, x1 = 0.1918 | 738.777 | 0.3188
303.15 K, x1 = 0.3234 | 757.526 | 0.3318
303.15 K, x1 = 0.4199 | 771.984 | 0.3415
303.15 K, x1 = 0.516 | 787.119 | 0.3514
303.15 K, x1 = 0.623 | 804.761 | 0.3628
303.15 K, x1 = 0.7154 | 820.882 | 0.3726
303.15 K, x1 = 0.8157 | 839.124 | 0.3837
303.15 K, x1 = 0.9098 | 857.076 | 0.3944
303.15 K, x1 = 0.9559 | 866.204 | 0.3998
303.15 K, x1 = 1 | 875.204 | 0.405
308.15 K, x1 = 0.0466 | 713.967 | 0.2903
308.15 K, x1 = 0.0991 | 720.87 | 0.2953
308.15 K, x1 = 0.1918 | 733.414 | 0.3043
308.15 K, x1 = 0.3234 | 752.126 | 0.317
308.15 K, x1 = 0.4199 | 766.553 | 0.3266
308.15 K, x1 = 0.516 | 781.656 | 0.3362
308.15 K, x1 = 0.623 | 799.266 | 0.3472
308.15 K, x1 = 0.7154 | 815.358 | 0.3569
308.15 K, x1 = 0.8157 | 833.567 | 0.3677
308.15 K, x1 = 0.9098 | 851.486 | 0.3781
308.15 K, x1 = 0.9559 | 860.595 | 0.3833
308.15 K, x1 = 1 | 869.585 | 0.3885
313.15 K, x1 = 0.0466 | 708.604 | 0.2765
313.15 K, x1 = 0.0991 | 715.486 | 0.2811
313.15 K, x1 = 0.1918 | 728.002 | 0.2891
313.15 K, x1 = 0.3234 | 746.649 | 0.3005
313.15 K, x1 = 0.4199 | 761.063 | 0.309
313.15 K, x1 = 0.516 | 776.136 | 0.3175
313.15 K, x1 = 0.623 | 793.704 | 0.3274
313.15 K, x1 = 0.7154 | 809.769 | 0.3359
313.15 K, x1 = 0.8157 | 827.935 | 0.3456
313.15 K, x1 = 0.9098 | 845.816 | 0.3548
313.15 K, x1 = 0.9559 | 854.913 | 0.3594
313.15 K, x1 = 1 | 863.882 | 0.3642
